# Test results taken from US7446117B2, “Cox-2 inhibiting pyridine derivatives” (Glaxo Group Limited, priority 2002, dated 2008).
# pIC50: −log10 of the molar value.
# Target: T1, microsomal h-COX2 (Homo sapiens, UniProt P35354)
# T1 construct: made in house; host or cells: baculovirus infected SF9 cells (microsomal preparation)
# T1 sequence (P35354 18-604): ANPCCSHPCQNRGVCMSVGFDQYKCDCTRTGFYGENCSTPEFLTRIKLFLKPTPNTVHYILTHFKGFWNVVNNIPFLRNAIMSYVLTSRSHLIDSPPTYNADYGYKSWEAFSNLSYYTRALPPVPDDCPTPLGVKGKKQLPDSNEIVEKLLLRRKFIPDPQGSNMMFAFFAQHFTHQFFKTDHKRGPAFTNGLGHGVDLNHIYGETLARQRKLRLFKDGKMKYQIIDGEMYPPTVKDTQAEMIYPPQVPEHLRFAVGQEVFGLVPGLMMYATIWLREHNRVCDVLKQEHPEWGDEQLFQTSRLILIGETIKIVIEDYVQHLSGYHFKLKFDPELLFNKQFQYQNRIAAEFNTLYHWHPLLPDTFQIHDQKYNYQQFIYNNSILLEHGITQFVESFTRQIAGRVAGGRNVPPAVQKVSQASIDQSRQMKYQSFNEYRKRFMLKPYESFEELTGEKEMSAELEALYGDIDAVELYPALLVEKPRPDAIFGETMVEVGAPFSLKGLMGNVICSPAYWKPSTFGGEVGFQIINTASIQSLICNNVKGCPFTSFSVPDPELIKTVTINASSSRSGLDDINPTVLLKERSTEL
# Test: Microsomal assay: inhibitory activity against microsomal h-COX2
# Assay type: biochemical
# Settings: microsomal preparation from baculovirus infected SF9 cells; 1 hour incubation with compound; 0.1 μM arachidonic acid, 10 minutes; PGE2 by EIA; read-out: IC50 values for inhibition of COX-2
# Method: Biological Data Microsomal Assay
# Inhibitory activity against microsomal h-COX2 was assessed against a microsomal preparation from baculovirus infected SF9 cells. An aliquot of microsomal preparation was thawed slowly on ice and a 1/40,000 dilution prepared from it into the assay buffer (sterile water, degassed with argon containing 100 mM HEPES (pH 7.4), 10 mM EDTA (pH7.4), 1 mM phenol, 1 mM reduced glutathione, 20 mg/ml gelatin and 0.001 mM Hematin). Once diluted the enzyme solution was then sonicated for 5 seconds (Branson sonicator, setting 4, 1 cm tip) to ensure a homogeneous suspension. 155 μl enzyme solution was then added to each well of a 96-well microtitre plate containing either 5 μl test compound (40× required test concentration) or 5 μl DMSO for controls. Plates were then mixed and incubated at room temperature for 1 hour. Following the incubation period, 40 μl of 0.5 μM arachidonic acid was added to each well to give a final concentration of 0.1 μM. Plates were then mixed and incubated for exactly 10 minutes (room temperature) prior to addition of 25 μl 1M HCl (hydrochloric acid) to each well to stop the reaction. 25 μl of 1M NaOH (sodium hydroxide) was then added to each well to neutralise the solution prior to determination of PGE2 levels by enzyme immunoassay (EIA).
row,SMILES,pIC50
1,Cc1ccc(CNc2nc(-c3ccc(S(C)(=O)=O)cc3)cc(C)c2C#N)cn1 [Example 192],≥ 6.30
2,CCN(Cc1ccccc1)c1cc(C(F)(F)F)cc(-c2ccc(S(C)(=O)=O)cc2)n1 [Example 193],≥ 6.30
3,CCOC(=O)c1c(CC)cc(-c2ccc(S(C)(=O)=O)cc2)nc1NCc1ccccc1 [Example 197],≥ 6.30
4,CS(=O)(=O)c1ccc(-c2cc(C(F)(F)F)cc(OCc3ccc(Br)cn3)n2)cc1 [Example 200],≥ 6.30
5,CS(=O)(=O)c1ccc(-c2cc(C(F)(F)F)cc(OCc3ccncc3Br)n2)cc1 [Example 201],≥ 6.30
6,Cc1cc(NCc2conc2C)nc(-c2ccc(S(C)(=O)=O)cc2)c1 [Example 202],≥ 6.30
7,CCc1cc(NCc2nccn2CC)nc(-c2ccc(S(C)(=O)=O)cc2)c1 [Example 204],≥ 6.30
8,Cc1cc(-c2ccc(S(C)(=O)=O)cc2)nc(N(C)Cc2nccn2C)c1C#N [Example 205],≥ 6.30
9,CS(=O)(=O)c1ccc(-c2cc(C(F)(F)F)cc(N[C@H]3CC[C@@H](C)CC3)n2)cc1 [Example 206],≥ 6.30
10,CS(=O)(=O)c1ccc(-c2cc(C(F)(F)F)cc(N[C@H]3CC[C@H](C)CC3)n2)cc1 [Example 207],≥ 6.30
11,CS(=O)(=O)c1ccc(-c2cc(C(F)(F)F)cc(NCc3ccccn3)n2)cc1 [Example 208],≥ 6.30
12,CS(=O)(=O)c1ccc(-c2cc(C(F)(F)F)cc(NC3CCCCCC3)n2)cc1 [Example 209],≥ 6.30
13,Cc1cc(-c2ccc(S(C)(=O)=O)cc2)nc(NCc2ccccn2)c1C#N [Example 210],≥ 6.30
14,CCC(CC)Nc1cc(C(F)(F)F)cc(-c2ccc(S(C)(=O)=O)cc2)n1 [Example 211],≥ 6.30
15,CS(=O)(=O)c1ccc(-c2cc(C(F)(F)F)cc(NC3CCC3)n2)cc1 [Example 212],≥ 6.30
16,Cc1noc(CNc2cc(C(F)(F)F)cc(-c3ccc(S(C)(=O)=O)cc3)n2)n1 [Example 213],≥ 6.30
17,Cc1nc(CNc2cc(C(F)(F)F)cc(-c3ccc(S(C)(=O)=O)cc3)n2)no1 [Example 214],≥ 6.30

row,SMILES,pIC50
1,CCc1cc(-c2ccc(S(C)(=O)=O)cc2)nc(OCc2ccccn2)c1C#N [Example 217],≥ 6.30
2,Cc1cc(NCc2ccnn2C)nc(-c2ccc(S(C)(=O)=O)cc2)c1 [Example 218],≥ 6.30
3,"CS(=O)(=O)c1ccc(-c2cc(C(F)(F)F)cc(NCC3CCCC3)n2)cc1 [Example 219, N-(cyclopentanemethyl)-4-(trifluoromethyl)-6-[4-(methylsulfonyl)phenyl]pyridine-2-amine]",≥ 6.30
4,CCc1cc(-c2ccc(S(C)(=O)=O)cc2)nc(OCc2ccccn2)c1Cl [Example 220],≥ 6.30
5,CCO[C@H]1CC[C@H](Nc2cc(C(F)(F)F)cc(-c3ccc(S(C)(=O)=O)cc3)n2)CC1 [Example 221],≥ 6.30
6,"CCc1cc(-c2ccc(S(C)(=O)=O)cc2)nc(NCc2ccccn2)c1C#N [Example 222, 4-Ethyl-6-[4-(methylsulfonyl)phenyl]-2-[(2-pyridinylmethyl)amino]-3-pyridinecarbonitrile]",≥ 6.30
7,CCc1cc(-c2ccc(S(C)(=O)=O)cc2)nc(NCc2ccc(C)cn2)c1C#N [Example 223],≥ 6.30
8,CCc1cc(-c2ccc(S(C)(=O)=O)cc2)nc(NCc2ccc(C)nc2)c1C#N [Example 224],≥ 6.30
9,CCc1cc(-c2ccc(S(C)(=O)=O)cc2)nc(NCc2cnn(C)c2)c1C#N [Example 228],≥ 6.30
10,CCc1cc(-c2ccc(S(C)(=O)=O)cc2)nc(NCc2nc(C)cs2)c1C#N [Example 229],≥ 6.30
11,CCc1cc(-c2ccc(S(C)(=O)=O)cc2)nc(NCC2CCCCC2)c1C#N [Example 231],≥ 6.30
12,CCc1cc(NCc2ncnn2CC)nc(-c2ccc(S(C)(=O)=O)cc2)c1 [Example 232],≥ 6.30
13,CCc1cc(NCc2ncnn2C)nc(-c2ccc(S(C)(=O)=O)cc2)c1 [Example 233],≥ 6.30
14,"CCn1ncnc1CNc1cc(C)cc(-c2ccc(S(C)(=O)=O)cc2)n1 [Example 234, N-[(1-ethyl-1H-1,2,4-triazol-5-yl)methyl]-4-methyl-6-[4-(methylsulfonyl)phenyl]pyridine-2-amine]",≥ 6.30
15,CCn1ncnc1CNc1cc(C(F)(F)F)cc(-c2ccc(S(C)(=O)=O)cc2)n1 [Example 235],≥ 6.30
16,"CCc1cc(-c2ccc(S(C)(=O)=O)cc2)nc(OCc2ccc(C)nc2)c1C#N [Example 236, 4-Ethyl-2-{[(6-methyl-3-pyridinyl)methyl]oxy}-6-[4-(methylsulfonyl)phenyl]-3-pyridinecarbonitrile]",≥ 6.30
